Experiment [1] relates to MM1 hepatocarcinoma cells. The experiment in a line: Invasion of mesothelial cell monolayer by MM1 cells. The format is cell-based, rat. The source says:
(§1) Cancer metastasis is a complex process that cannon be accurately modeled in vitro. Models that utilize cellular monolayers for the invasion of carcinoma cell come the closest to the situation in vivo. Two different cell monolayers, mouse mesothelium and human vascular endothelium were used to examine the role of ATX in the invasion of MM1 hepatocarcinoma cells and the reduction of such invasion by the chemical compounds of the present application. The mesothelial monolayer is an accepted model for invasion of body cavities lined by serous cells whereas, the HUVEC monolayer is considered to be an in vitro model of hematogenous invasion of carcinomas.
(§2) Highly invasive MM1 cells originally isolated from the AH130 rat hepatoma cells were utilized in these studies. The cells were grown in suspension in DMEM supplemented with 10% fetal bovine serum, 2 mM glutamine, 100 units/ml penicillin and 10 μg/ml streptoinycin. Mesothelial cells were isolated and cultured from C57BL/6 mice. Human umbilical cord vascular endothelial cells (HUVEC) were obtained from VEC Technologies Inc., (Rensselaer, N.Y., USA) and were grown in MCDB-131 complete medium containing 10% fetal bovine serum. 90 μg/ml heparin, 10 ng/ml EGF, 1 μg/ml hydrocortisone, 0.2 mg/ml EndoGrowth supplement, 100 units/ml penicillin G, 100 μg/ml streptomycin and 25 μg/ml amphotericin B (all from VEC Technologies). Tumor cell invasion was performed by seeding 1.3×10^5 HUVECs (passage 7) into each well of a 12-well plate pre-coated with 0.2% gelatin (Sigma) and cultured for 2 days to form a confluent monolayer. Mesothelial cells harvested from two-three mice were initially plated in 6-well plates and grown to confluency in DMEM medium supplemented with 10% fetal bovine serum in the presence of 100 units/ml penicillin G and 10 μg/ml streptomycin. When confluent, the mesothelial cells were split into three equal aliquots (˜5×10^4 cells each) and plated to three wells of a 12-well plate and grown to confluence.
Invasion of MM1 cells of Example 53 was determined and the effect of compounds of the present application in reducing the invasion was determined. For all invasion assays, MM1 cells were pre-stained with 2 μg/ml calcein AM (Invitrogen, USA) for 2 h, rinsed once, and seeded at a density of 5×10^4 cells/well over the monolayers. […] The number of tumor cells that penetrated the monolayer was photographed under a NIKON TiU inverted microscope using phase-contrast and fluorescence illumination in a minimum of five non-overlapping fields at 100× magnification. The fluorescent images were overlayed on top of the phase contrast images using the Elements BR software (version 3.1x) and the invaded MM1 cells showing the characteristic flattened morphology in the plane of focus underneath the monolayer were counted. […]

Experiment [2] has as its system MM1 hepatocarcinoma cells. The experiment is described as follows: Invasion of HUVEC monolayer by MM1 cells. It is filed as cell-based, rat. The following applies: 1.5 μM LPC; FIG. 14.
Description: as §1, §2
Invasion of MM1 cells of Example 53 was determined and the effect of compounds of the present application in reducing the invasion was determined. For all invasion assays, MM1 cells were pre-stained with 2 μg/ml calcein AM (Invitrogen, USA) for 2 h, rinsed once, and seeded at a density of 5×10^4 cells/well over the monolayers. Tumor cells were left to invade the HUVEC monolayer for 24 h in MCDB-131 complete media containing 1% serum with or without addition of 1.5 μM LPC. MM1 cells were plated on the mesothelial monolayers in 2% fetal bovine serum-supplemented DMEM medium in the presence of 100 units/ml penicillin G and 10 μg/ml streptomycin with or without 1.5 μM LPC (5 μM for the mesothelium cells) and invasion was allowed to proceed for 20 h. The day after MM1 cell seeding, non-invaded tumor cells were removed by repeated five rinses of the HUVEC monolayer (three rinses for the mesothelial monolayers) with PBS (containing Ca^2+ and Mg^2+) followed by fixation with 10% buffered formalin. The number of tumor cells that penetrated the monolayer was photographed under a NIKON TiU inverted microscope using phase-contrast and fluorescence illumination in a minimum of five non-overlapping fields at 100× magnification. The fluorescent images were overlayed on top of the phase contrast images using the Elements BR software (version 3.1x) and the invaded MM1 cells showing the characteristic flattened morphology in the plane of focus underneath the monolayer were counted. […]

Experiment [3] has as its target recombinant human ATX (Homo sapiens, UniProt Q13822). The experiment is described as follows: Autotaxin inhibition screening assay (FS-3 FRET substrate). The format is biochemical. To be noted: 10 μM compound; 2 nM recombinant human ATX; 1 μM FS-3; 2 h, 37° C.; read-out: ATX Activity, % control (10 μM). As for the experimental part:
A 10 μM concentration of the compound is added to 2 nM recombinant human ATX and the FRET (Fluorescence Resonance Energy Transfer) ATX substrate FS-3.
As the first level of screen, 50 μl of recombinant-ATX (2 nM in final concentration) in assay buffer [(Tris 50 mM, NaCl 140 mM, KCl 5 mM, CaCl2 1 mM, MgCl2 1 mM (pH 8.0)] was mixed with 25 μL of FS-3 (Echelon Biosciences, Inc., Salt lake city, Utah), final concentration 1 μM, and 25 μl of test compound was dissolved in assay buffer with 40 μM bovine serum albumin (Sigma, St. Louis, Mo.) in 96-well Costar black-well plate. FS-3 fluorescence at excitation and emission wavelengths of 485 and 538 nm, respectively, were monitored using a FLEXstation II (Molecular Devices, Sunnyvale, Calif.) for 2 h of incubation at 37° C. The differences between time 0 and 120 min were calculated individually and normalized to the vehicle control. The mean±SD of triplicate samples was expressed as percentage of ATX activity. The ATX activity in the presence of the test compounds was compared to vehicle using the […] p<0.05 was considered significant.
The first level of testing was done using 10 μM concentrations of the compounds shown in Tables 1 and 2 added to 2 nM recombinant human ATX and the FRET substrate FS-3. After a 2 h incubation the amount of FS3 hydrolyzed was measured and the residual ATX activity was expressed as a percent of the vehicle-treated sample less the autolysis of FS3 in the absence of ATX.

The target in experiment [4] is recombinant, purified human ATX (Homo sapiens, UniProt Q13822). The experiment in a line: Mechanism of autotaxin inhibition (IC50, Ki, Ki′; FS-3 hydrolysis). It is filed as biochemical. As for the experimental part:
The mechanism of inhibition of ATX was determined using recombinant, purified human ATX and FS-3. Final ATX and FS-3 concentrations were 8.3 nM and 1 μM, respectively and the assay buffer with 15 μM fatty acid tree BSA. To calculate IC50, full dose responses were determined for the test compounds. […] Simultaneous non-linear regression, using, WinNonLin® 6.1 (Pharsight, Mountain View, Calif.) was used to assign the mechanism of inhibition. Ki and Ki′ values (the affinity for free enzyme and enzyme substrate complex, respectively) were determined by calculating the lowest averaged percent residuals for each mechanism derived from curve fitting using the Michealis-Menten equations for competitive, uncompetitive, mixed-mode, and non-competitive inhibition.

The target of experiment [5] is T1, NPP6 (Homo sapiens, UniProt Q6UWR7).
T1 sequence (Q6UWR7 23-419): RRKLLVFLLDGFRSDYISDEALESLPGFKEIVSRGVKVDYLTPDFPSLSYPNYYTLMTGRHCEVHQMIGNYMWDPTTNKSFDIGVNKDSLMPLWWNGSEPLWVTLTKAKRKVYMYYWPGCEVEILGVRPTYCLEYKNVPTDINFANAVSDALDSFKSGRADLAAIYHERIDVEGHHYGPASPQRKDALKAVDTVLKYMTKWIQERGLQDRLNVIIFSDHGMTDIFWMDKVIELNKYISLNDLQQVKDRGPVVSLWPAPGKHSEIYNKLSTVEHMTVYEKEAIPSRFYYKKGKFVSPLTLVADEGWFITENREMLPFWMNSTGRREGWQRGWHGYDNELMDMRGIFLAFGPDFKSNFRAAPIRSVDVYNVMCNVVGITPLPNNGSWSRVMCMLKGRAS
The experiment is described as follows: NPP-6 inhibition assay (pNPPC substrate). It is filed as biochemical. To be noted: 10 μM compound; 8.3 nM enzyme; 10 μM pNPPC; read-out: NPP6 Activity, % control (10 μM). Here is the method:
(§3) NPP6 and NPP7 are the only NPP isoforms other than ATX that are known to utilize lysophospholipid phosphodiesters as substrates. Therefore, the specificity of the chemical compounds of the invention regarding ATX was addressed by determining the activity of NPP6 and NPP7 in the presence and absence of these analogs.
(§4) Inhibition of NPP6 and NPP7 was evaluated using recombinant, purified proteins, the synthetic substrate para-nitrophenylphosphocholine (pNPPC) and a Synergy II plate reader (BioTek, Winooski, Vt.). The final concentration of each enzyme was 8.3 nM and pNPPC was 10 μM. All analogs were tested at single 10 μM concentrations. Absorbance of liberated para-nitrophenol at 405 nm was determined up to 1 hour (where responses were linear) and was normalized to vehicle control.

Experiment [6] has as its target T2, NPP7 (Homo sapiens, UniProt Q6UWV6).
T2 sequence (Q6UWV6 22-458): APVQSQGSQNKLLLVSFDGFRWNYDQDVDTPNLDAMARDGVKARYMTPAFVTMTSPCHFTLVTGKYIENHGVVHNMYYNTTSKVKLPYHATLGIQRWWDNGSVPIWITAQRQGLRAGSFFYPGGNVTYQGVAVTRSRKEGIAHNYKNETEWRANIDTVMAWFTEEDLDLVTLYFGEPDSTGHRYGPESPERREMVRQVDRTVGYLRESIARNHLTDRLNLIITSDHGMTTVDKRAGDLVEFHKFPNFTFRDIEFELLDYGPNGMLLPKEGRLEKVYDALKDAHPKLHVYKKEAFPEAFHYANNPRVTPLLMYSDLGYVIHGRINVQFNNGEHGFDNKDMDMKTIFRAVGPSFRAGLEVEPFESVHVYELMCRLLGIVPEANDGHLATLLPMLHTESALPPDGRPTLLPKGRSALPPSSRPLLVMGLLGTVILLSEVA
The experiment is described as follows: NPP-7 inhibition assay (pNPPC substrate). It is filed as biochemical. The following applies: 10 μM compound; 8.3 nM enzyme; 10 μM pNPPC; read-out: NPP7 Activity, % control (10 μM). Here is the method: as §3, §4

The subject of experiment [7] is breast and colon cancers. To be noted: xenograft models, Zhang et al 2009; cited from earlier work.

The values that follow come from US8673882B2, “Inhibitors of autotaxin” (University of Tennessee Research Foundation, priority 2011, dated 2014).

In the case of `CCCCCCCCCCCCCc1ccc2cc(CP(=O)(OC)OC)ccc2c1` [Compound 33b, Dimethyl-6-tridecylnaphthalen-2-yl-methylphosphonate], the “MM1 cell invasion of the mesothelial monolayer” value in experiment [1] (with LPC, FIG. 12 panel E) is reported as “inhibition”. Moreover, the “LPC-dependent invasion of the HUVEC monolayer” value in experiment [2] is “blockage”.
In general, IC50 refers to the concentration needed to halve the response being measured. As usually defined, the Ki is the equilibrium dissociation constant of an inhibitor or competing ligand from its target. For the compound `CCCCCCCCCCCCCCCc1ccc(C(Br)P(=O)(O)O)cc1` (centres unmarked) [Compound 43, Bromo-4-pentadecylphenylmethyl phosphonic acid], the figures for the remaining activity at 10 µM in experiment [3], in experiment [5] and in experiment [6] were 60.1%, 99.3% and 99.5%, respectively. Also, the concentration for half-maximal inhibition (IC50) in experiment [4] (8.3 nM ATX, 1 μM FS-3, 15 μM BSA) came to 10.1 µM. Moreover, in experiment [4] (FS-3 0.3 μM to 20 μM, inhibitor 0, 0.5× and 2× IC50), the “ATX Mechanism of inhibition” value was “Mixed”. Further, the figures for the Ki in experiment [4] (affinity for enzyme substrate complex) and in experiment [4] (affinity for free enzyme) were 2.97 µM and 6.1 µM, respectively.
Take LPA bromophosphonate [LPA-BP]: the “metastasis of breast and colon cancers” value in experiment [7] is on record as “inhibit the metastasis”.
On to “lysophosphatidylcholine [LPC, reference compound]”, for which, in experiment [1] (FIG. 12d, mesothelial cell layers), the “effect of LPC on invasion in the co-culture” value was “increases invasion in a dose-dependent manner”.
